The values below come from ChEMBL document CHEMBL3400041, “Pyridinic analog of the natural product (-)-spectaline as potential adjuvant for the treatment of central nervous system disorders” (Bioorg Med Chem Lett, 2015).

Data set [1] deals with Mus musculus. Briefly: Antidepressant-like activity in mouse assessed as decrease in immobility time at 10 mg/kg, po by forced swimming test. Type of data set: functional, organism-based. On the set-up: dose 10 mg/kg.
Data set [2] relates to Mus musculus. Briefly: Effect on CNS activity in mouse assessed as reduction in number of groomings at 10 mg/kg, po by spontaneous locomotor activity test. The class given is functional, organism-based. On the set-up: dose 10 mg/kg. The settings on record: Central nervous system.
Data set [3] relates to Mus musculus. Briefly: Effect on CNS activity in mouse assessed as reduction in exploratory behaviour at 10 mg/kg, po by spontaneous locomotor activity test. Type of data set: functional, organism-based. The settings on record: Central nervous system. Also on record: dose 10 mg/kg.
Data set [4] concerns Mus musculus. Briefly: Toxicity in mouse assessed as rearing behavior at 10 mg/kg, po by spontaneous locomotor activity test. The class given is organism-based. Also on record: dose 10 mg/kg, route oral. The settings on record: in vivo.
Data set [5] relates to Mus musculus. Briefly: Antischizophrenic activity in mouse assessed as inhibition of apomorphine-induced climbing behavior at 5 to 10 mg/kg, po. Type of data set: functional, organism-based.
Data set [6] has as its system Mus musculus. Briefly: Antidepressant-like activity in mouse assessed as decrease in immobility time at 5 to 10 mg/kg, po by forced swimming test. Type of data set: functional, organism-based.
For data set [7], the system named is Mus musculus. Briefly: Antischizophrenic activity in mouse assessed as inhibition of apomorphine-induced climbing behavior at 10 mg/kg, po. Also on record: dose 10 mg/kg. The class given is functional, organism-based.
Data set [8] concerns Mus musculus. The data set is described as follows: Antischizophrenic activity in mouse assessed as inhibition of apomorphine-induced climbing behavior at 5 mg/kg, po. The class given is functional, organism-based. Also on record: dose 5 mg/kg.

Active and inactive are the calls of the source. No cut-off for these calls is given here.

Consider `CN(C)CCCN1c2ccccc2CCc2ccccc21`, for which, in the data set with Mus musculus [1], the outcome was Active.
For `CCOC(=O)CSc1ccc([N+](=O)[O-])c(SCC(=O)OCC)n1`, the result with Mus musculus [2] and with Mus musculus [3] was Active. Further, the Activity result in the data set on Mus musculus [4] is on record as “Non-toxic”. For the same compound, the inhibition entry in the data set on Mus musculus [5] was “inactive”. The result in the data set on Mus musculus [6] was inactive.
Regarding `CCOC(=O)CSc1ncccc1[N+](=O)[O-]`, the result in the data set with Mus musculus [2], in the data set on Mus musculus [3] and in the data set on Mus musculus [6] was Active. The inhibition entry in the data set on Mus musculus [7] was “Active”. Also, the Activity entry in the data set with Mus musculus [4] is recorded as “Non-toxic”.
On to `CCOC(=O)CSc1nc(Cl)ccc1[N+](=O)[O-]`, for which the outcome in the data set on Mus musculus [2] and in the data set with Mus musculus [3] was Active. The Activity entry in the data set on Mus musculus [4] was “Non-toxic”. Further, the inhibition result in the data set on Mus musculus [5] is “inactive”. For the same compound, the outcome in the data set on Mus musculus [6] was inactive.
`CN1CCN(C2=Nc3cc(Cl)ccc3Nc3ccccc32)CC1`: the inhibition entry in the data set on Mus musculus [8] is “Active”.
